In PubChem BioAssay (NCI):
Where “and” joins values, the source holds several entries; their conditions need not be identical. Equal entries are not always repeated.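 Assay format: 96-well plates, 48-hour exposure. At the GI50, growth is halved. Definition used: TGI = concentration required for complete inhibition of growth.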

How the values were obtained:
Assay in all cases: NCI-60 cell line screen, 48 h
ACHN renal = test system: ACHN renal
EKVX NSCLC = test system: EKVX NSCLC
HCC-2998 colon = test system: HCC-2998 colon
MDA-MB-435 = test system: MDA-MB-435
NCI-H23 lung = test system: NCI-H23 lung
NCI-H522 lung = test system: NCI-H522 lung
NCI/ADR-RES ovarian = test system: NCI/ADR-RES ovarian
PC-3 prostate = test system: PC-3 prostate
SF-268 CNS = test system: SF-268 CNS
TK-10 renal = test system: TK-10 renal

Row | SMILES | GI50 (ACHN renal) [µM] | TGI (ACHN renal) | GI50 (EKVX NSCLC) [µM] | TGI (EKVX NSCLC) | GI50 (HCC-2998 colon) [nM] | TGI (HCC-2998 colon) [µM] | GI50 (MDA-MB-435) [nM] | TGI (MDA-MB-435) | GI50 (NCI-H23 lung) [µM] | TGI (NCI-H23 lung) | GI50 (NCI-H522 lung) [µM] | TGI (NCI-H522 lung) | GI50 (NCI/ADR-RES ovarian) [µM] | TGI (NCI/ADR-RES ovarian) [µM] | GI50 (PC-3 prostate) [µM] | TGI (PC-3 prostate) | GI50 (SF-268 CNS) [µM] | TGI (SF-268 CNS) | GI50 (TK-10 renal) [µM] | TGI (TK-10 renal)
1 | CN1CCN(Cc2ccc(NC(=O)c3[nH]ncc3Nc3ncnc4[nH]ccc34)cc2)CC1 | 0.322 | 10 µM | 0.368 | 2.64 µM | 367 | 1.42 | 298 | 1.71 µM | 0.295 | 1.08 µM | 0.283 | 1.63 µM | 7.16 | > 100 | 0.372 | > 100 µM | 0.374 | 1.42 µM | 0.562 | 2.37 µM
2 | Fc1ccc2c(c1)C1=C(CCC2)C(c2ccc(Cl)cc2)NC(=S)N1 (centres undefined) | 29.5 | > 100 µM | 32.8 | > 100 µM | 43200 | > 100 | 40900 | > 100 µM | 84.7 | > 100 µM | 13.1 | 94 µM | 61.6 | > 100 | 17.6 | > 100 µM | 83.8 | > 100 µM | 12.6 | 80.3 µM
3 | COc1ccc(C2NN=C3c4ccccc4CCC32)cc1 (centres undefined) | 24.5 | > 100 µM | 1.4 | 29.3 µM | 12400 | > 100 | 1570 | 3.62 µM | 12.6 | 93.3 µM | 3.21 | 17.7 µM | 3.99 | 38.3 | 15.8 | > 100 µM | 15.7 | > 100 µM | 16.9 | 71.8 µM
4 | Cc1nn(C)c2ncnc(N/N=C/c3cccc(O)c3O)c12 | 0.338 | > 32.3 µM | 2.78 | > 100 µM | 853 | > 100 | 609 | > 100 µM | 0.774 | > 68.2 µM | 0.41 | > 48.2 µM | 0.336 | > 55.8 | 0.545 | > 100 µM | 0.342 | 20.4 µM | 2.64 | > 100 µM
5 | CCN1CCN(c2cc(C(=O)Nc3cccc(Nc4ccc5c(OC)cccc5n4)c3)cc(C(F)(F)F)c2)CC1 | 1.21 | 4.97 µM | 3.07 | 9.46 µM | 720 | 2.01 | 1160 | 4.93 µM | 3.41 | 8.12 µM | 1.01 | 4 µM | 1.29 | 6.69 | 0.805 | 2.5 µM | 1.76 | 7.41 µM | 3.47 | 8.02 µM
6 | COC1=C(OC)C(=O)C(C/C=C(\C)CC/C=C(\C)CC/C=C(\C)CC/C=C(\C)CC/C=C(\C)CC/C=C(\C)CC/C=C(\C)CC/C=C(\C)CC/C=C(\C)CCC=C(C)C)=C(C)C1=O | > 100 | > 100 µM | > 100 | > 100 µM | > 100000 | > 100 | > 100000 | > 100 µM | > 100 | > 100 µM | > 100 | > 100 µM | > 100 | > 100 | > 100 | > 100 µM | > 100 | > 100 µM | > 100 | > 100 µM
7 | O=c1cc(-c2ccccc2)[nH]c2c1CCCC2 | 11.6 | > 100 µM | 5.6 | > 100 µM | 2500 | 31.9 | 290 | 0.992 µM | 3.39 | > 100 µM | 2 | 6.71 µM | 1.69 | 5.73 | 3.18 | > 100 µM | 7.72 | > 100 µM | 70.6 | > 100 µM
8 | CC1=C(CO)C(=O)O[C@@H]([C@@H](C)[C@H]2CC[C@H]3[C@@H]4C[C@H]5O[C@]56[C@@H](O)C=CC(=O)[C@]6(C)[C@H]4CC[C@]23C)C1 |  | 2.02 µM | 0.434 | 1.45 µM |  | 1.56 | 252 | 0.976 µM |  | 0.81 µM |  | 0.114 µM | 0.821 | 11.2 | 1.03 | 2.46 µM |  | 1.29 µM |  | 1.99 µM
9 | CN1CCN(C(=O)c2ccc(NC(=O)Nc3ccc(-c4nc(N5CCOCC5)c5cccn5n4)cc3)cc2)CC1 | 0.279 | 12.8 µM | 0.042 | 0.703 µM | 35.2 | 11.8 | 32 | 0.41 µM | 0.0711 | 19 µM | 0.0357 | 16.9 µM | 8.06 | > 81.6 | 0.0488 | 19.3 µM | 0.0399 | 12 µM | 0.18 | 0.874 µM
10 | Cc1c(Nc2nccc3cc(CN4CC[C@@H](O)C4)cnc23)cccc1-c1cccc(-c2nc3cc(CN4CC[C@@H](C(=O)O)C4)cc(C#N)c3o2)c1C | 91.7 | > 100 µM | > 100 | > 100 µM | 12700 | 49 | 15300 | 35.1 µM | 12 | 27.1 µM | 13.1 | 30.6 µM | 14.8 | > 100 | 4.17 | > 100 µM | 10.9 | > 100 µM | 20.5 | > 100 µM
11 | COc1cc(C)cc(C(=O)/C=C/c2ccccc2)c1O |  | 33.1 µM |  | 47.8 µM |  | 38 |  | 83.6 µM |  | 32.4 µM |  | 50.8 µM |  | 52 |  | 49.8 µM |  | 88.1 µM |  | 35.8 µM
12 | COc1cc(/C=C/C(=O)CC(=O)/C=C/c2cc(OC)c(O)c(OC)c2)cc(OC)c1O | 42.2 | 25 µM and > 100 µM | 18.7 | 25 µM and 71.2 µM |  | 11.6 |  | 16.3 µM and 24 µM | 12.7 | 25 µM and 35.7 µM | 3.75 | 15 µM and 14 µM | > 100 | > 100 |  | 25 µM and 37.8 µM | 9.06 | 15.4 µM and 41.2 µM | 34.2 | 25 µM and > 100 µM
13 | OCCCCC#Cc1ccccc1C#Cc1cccnc1 | 28.3 | > 100 µM | 41.7 | > 100 µM | 24800 | 70.7 | 32200 | > 100 µM | 28 | > 100 µM | 41.9 | > 100 µM | 28.9 | > 100 | 36.3 | > 100 µM | 40.3 | > 100 µM | 26.9 | 80.6 µM
14 | O=C1C=CC(=O)c2c1ccc1c3ccccc3n(Cc3ccccc3)c21 |  | 35.4 µM |  | > 100 µM |  | > 79.5 |  | > 56.8 µM |  | 42.7 µM |  | 19.9 µM |  | > 68.4 |  | 53.3 µM |  | > 77.6 µM |  | 35.1 µM
15 | CCN(CC)CCCNCc1cc(-c2ccccc2)nc2cc(Cl)ccc12 | 3.74 | 14.2 µM | 7.85 | 24.3 µM | 1940 | 3.89 | 1840 | 3.81 µM | 12.5 | 27.3 µM | 4.96 | 17.2 µM | 5 | 19.7 | 4.37 | 18.4 µM | 3.05 | 12.9 µM | 3.27 | 10.2 µM
16 | CCCCCCCCCCCNC=O |  | > 100 µM |  | > 100 µM |  | 86.1 |  | > 100 µM |  | > 100 µM |  | 85.3 µM |  | 96.6 |  | 66.9 µM |  | > 100 µM |  | > 100 µM
17 | CC(C)C1(NC(=O)C2CC3c4cccc5[nH]cc(c45)CC3N(C)C2)OC2(O)C3CCCN3C(=O)C(Cc3ccccc3)N2C1=O (centres undefined) |  | > 100 µM |  | > 100 µM |  | > 100 |  | > 100 µM |  | > 100 µM |  | > 100 µM |  | > 100 |  | > 100 µM |  | > 100 µM |  | > 100 µM
18 | O=C1NC(=O)C(=Cc2cn(Cc3ccccc3)c3ccccc23)C(=O)N1 | 19.8 | 53.9 µM | 21.3 | > 63.5 µM | 10900 | 29.5 | 17900 | 42.3 µM | 14.1 | 34.2 µM | 13.1 | 37.2 µM | 18.4 | 50.3 | 11.4 | 30.8 µM | 15.8 | 32.9 µM | 2.16 | 8.58 µM
19 | Nc1nc(Cl)nc2c1ncn2C1OC(CO)C(O)C1F (centres undefined) | 0.169 | > 21.2 µM | 1.46 | > 100 µM | < 30.4 |  | 47.2 | > 100 µM | 0.02 | 0.626 µM | > 68.2 | > 100 µM | < 0.0166 | 4.98 | 99.7 | > 100 µM | 0.223 | 21.3 µM | 0.55 | > 83 µM
20 | Cc1nc(NS(=O)(=O)c2ccc(NCN3C(=O)c4ccccc4C3=O)cc2)oc1C | > 100 | > 100 µM | > 100 | > 100 µM | > 100000 | > 100 | > 100000 | > 100 µM | > 100 | > 100 µM | > 100 | > 100 µM | > 100 | > 100 | > 100 | > 100 µM | > 100 | > 100 µM | > 100 | > 100 µM
21 | CC(C)=Cc1cc(CCC/C(C)=C/Cc2c(O)cc(C)c(C(=O)O)c2O)co1 |  | > 100 µM |  | > 100 µM |  | > 100 |  | > 100 µM |  | > 100 µM |  | > 100 µM |  | > 100 |  | > 100 µM |  | > 100 µM |  | > 100 µM
22 | C=C(C)[C@@H]1CCc2c(O)c(O)c(=O)cc(C)c2C1 |  | 14.1 µM |  | > 100 µM |  | > 100 |  | > 100 µM |  | 48.9 µM |  | > 96.6 µM |  | 25.8 |  | > 100 µM |  | > 100 µM |  | 43.7 µM
23 | CC(=O)c1c[nH]c2ccc(-c3ccnc(Nc4ccc(NC(=O)C5CCCC5)c(CN5CCOCC5)c4)n3)cc12 | 0.0305 |  | 0.0382 | 0.457 µM | 44.4 | 0.6 | 28.6 | 0.121 µM | 0.0344 | 0.364 µM | 0.0439 | 0.309 µM | 0.306 | 2.96 | 0.0325 | 1.05 µM | 0.033 | 0.159 µM | 0.0274 | 0.406 µM
